In patent publication US20250177548A1, “FUSOGENIC PEPTIDE COMPOSITIONS AND METHODS OF CARGO DELIVERY” (CLEMSON UNIVERSITY, priority 2022, published 2025):
Several values for one entry are separate records, joined by “and”; a condition that tells them apart may be missing. Equal values may be shown once. Non-standard residues stand in square brackets, D forms with d. No end group written: not given here. pG = not defined here

Columns and labels:
[1] = gel assay of siRNA protection from degradation in 50% serum; format: in vitro ADME; conditions: 50% FBS, 1 hour, several N:P ratios
Method: Gel Shift Assays. DIVA3, DIV3H, and DIV3W (all three denoted as DIV3 (X)) peptides suspended in RNase-free water (10 μM), were thawed, and kept on ice prior to complexation with 10 μM of negative control siGENOME non-targeting siRNA #5 (siNT, GE Healthcare Dharmacon, Lafayette, CO) in RNase-free water and incubated for 20 minutes at room temperature to allow the formation of DIV3 (X)-siNT complexes. Various molar ratios of peptides were complexed with siNT at increasing N:P molar ratios to determine the minimum molar ratio necessary to completely complex free siRNAs using an electrophoretic mobility shift assay. To determine the ability of each peptide variant to protect siRNAs from degradation, DIV3 (X)-siNT complexes or siNT alone was left untreated or incubated with either 50% v/v FBS or 5 μg/mL RNase A at 37° C. for one hour. Next, complexes were dissociated using 6% sodium dodecyl sulfate (SDS). Samples were added to a 2% agarose gel and run at 100 V. Gels were stained with ethidium bromide, destained with Milli-Q water, and imaged using a ChemiDoc XRS imager (Bio-Rad, Hercules, CA).
Characterization of Nanoparticle Size and Stability. To determine the minimum molar ratio necessary to completely complex free siRNAs, increasing N:P molar ratios of LHRH, DIV3W, and LHRH-DIV3W peptide were complexed with siRNAs and electrophoresed using a electrophoretic mobility shift assay. Molar ratios, shown as N:P, are representations of the molar amine peptide content in relation to 1 mole of phosphate group siRNA content. To determine the ability of the peptides to protect siRNAs from serum- or RNase-mediated degradation, LHRH and LHRH-DIV3W complexes were formed in RNase-free water with siNT at increasing N:P molar ratios and incubated at 37° C., 5% CO2, 50% v/v FBS, 5 μg/mL RNase A, or 50% v/v RNase free water for 1 hour. Peptide/siRNA complexes were dissociated using 6% sodium dodecyl sulfate (SDS) prior to electrophoresis in a 2% agarose gel run at 100 V. Gels were stained with ethidium bromide, washed with Milli-Q water, and imaged with a BioRad ChemiDoc XRS imager (BioRad, Hercules, CA).
Peptides VA-LD and GF-LD, comprising the cleavable linker VA or GLFG, respectively, between the LHRH target sequence and the DIV3W peptide, and non targeting siRNA were electrostatically complexed at increasing N:P ratios then subjected to agarose gel electrophoresis to determine optimal siRNA binding for each peptide. […] Peptide-siRNA nanocomplexes at increasing N:P ratios for peptides for VA-LD (FIG. 30A) and GF-LD (FIG. 30C) were incubated in either Rnase A enzyme or in 50% fetal bovine serum (FBS) for 1 h, dissociated using SDS then subjected to gel electrophoresis to visualize siRNA bands. Gels showing increasing N:P ratios of peptide:siRNA for VA-LD (FIG. 30B) and GF-LD (FIG. 30D) from 20:1 to 80:1 N:P; white bands are indicative of intact siRNA

CAOV3 cells = assay: cellular uptake of labeled siRNA by flow cytometry; format: cell-based; conditions: for uptake efficiency: 80:1
Method: (§1) Cellular Uptake. OVCAR3 and CAOV3 cells were prepared at 50,000 cells per well in a 24-well plate. […] Post-incubation, media was aspirated and cells were washed with 1× PBS. To counterstain the nuclei, SuperSignal NucBlue Hoechst stain (Thermo Fisher, Waltham, MA) was added to the cells for 30 minutes, followed by an additional 1×PBS wash. Subsequent imaging was performed using an EVOS FL Microscope (Thermo Fisher) at 10× magnification. For flow cytometric analysis, cells were detached, resuspended in 1× PBS, and analyzed using an Attune NXT Acoustic flow cytometer (Invitrogen, Carlsbad, CA) with the blue laser line and BL2 (574/26 nm) channel.
(§2) Cellular Uptake and Targeting Specificity. Observation of cell uptake was performed by seeding OVCAR3 and CAOV3 cells at a density of 50,000 cells per well in a 24-well plate. LHRH and LHRH-DIV3W peptides were complexed with […] as previously described and delivered to cells at 20:1 to 80:1 N:P ratios. Each cell line was incubated with tandem peptide complexes for both 4- and 24-hour treatment periods. Following incubation, cell media was removed, and cells were washed with 1× PBS prior to the addition of 500 μL of 1×PBS and SuperSignal NucBlue Hoescht 33342 nuclear stain (Thermo Fisher, Waltham, MA). Cellular imaging was completed using an EVOS FL Microscope (Thermo Fisher) at 10×, 20×, and 40× magnification. Flow cytometry was completed after cell imaging and cells were trypsinized, resuspended in 1×PBS, and analyzed with an Attune NXT Acoustic Flow Cytometer (Invitrogen) with the red laser line and RL2 […] channel.

CK2α protein = assay: Western blot of CK2α in OVCAR3 cells; format: cell-based; conditions: OVCAR3, 48 hours, 50:1 N:P ratio
Method: Western Blot. […] Cells were washed and treated with DIV3 (X)-siRNA complexes as previously described. Following the 48-hour treatment, cells were washed with 1× PBS and lysed with cold radioimmunoprecipitation assay (RIPA) buffer supplemented with protease inhibitor cocktail (Thermo Fisher). Protein concentrations were determined via bicinchoninic assay according to the manufacturer's protocol and absorbance was read at 562 nm. Equivalent protein concentrations for each treatment condition were separated by SDS-PAGE on a BioRad Stain-Free 10% gel according to BioRad protocols and transferred to a Stain-Free PVDF membrane using a wet transfer system. The PVDF membrane was cut at appropriate molecular weight intervals consistent with protein weights, then analyzed and blocked for 1 hour with 5% non-fat dried milk solution in 1× Tris-HCl-buffered-saline-0.1% Tween 20 (TBST) at room temperature. Blots were probed at 4° C. overnight with rabbit monoclonal anti-CK2α antibody (1:1000, Invitrogen) or mouse monoclonal anti-β-actin (1:10,000, Sigma-Aldrich, St. Louis, MO). […] Five additional washes with 1× TBST were performed and protein bands were detected with SuperSignal West Pico Plus Chemiluminescent Substrate (Thermo Fisher) and imaged using a BioRad ChemiDoc Imaging System.

OVCAR3 cells [2] = test system: OVCAR3 cells
Method: Cells were seeded at 10,000 cells per well with complete culture media in a 96-well plate and incubated overnight to allow the cells to attach. DIV3 (X) peptides were complexed with siNT at 40:1 to 80:1 N:P molar ratios. DIV3 (X)-siNT complexes were incubated with OVCAR3 or CAOV3 cells at a final concentration of 100 nM siRNA and 10% FBS for 24 hours. Media was then aspirated, cells were washed with 1× phosphate-buffered saline (PBS), and fresh media with 10% FBS was added to each well and incubated another 24 hours.
Viability was measured using an MTS Assay performed with CellTiter 96 AQueous One Solution Cell Proliferation Assay (Promega, Madison, WI). Assay reagent was added according to the manufacturer's protocol, and cells were incubated for 4 hours. Absorbance was read using a BioTek Synergy LX (BioTek, Winooksi, VT) plate reader at 490 nm. An MTS cell viability assay was also conducted as described for OVCAR3 and CAOV3 cells treated with DIV3W-siRNA complexes.
OVCAR3 or CAOV3 cells were seeded at 10,000 cells per well with complete culture media in a transparent 96-well plate and incubated overnight to allow the cells to attach. LHRH and LHRH-DIV3W peptides were delivered to cells without siRNA cargo. After 24 hours of incubation the media was exchanged and after another 24-hour incubation at 37° C. in 5% CO2, viability was measured using an MTS Assay performed with the CellTiter 96 AQueous One Solution Assay (Promega, Madison, WI). Assay reagent was added according to the manufacturer's protocol and cells were incubated for 4 hours. Absorbance was read using a BioTek Synergy LX (BioTek, Winooksi, VT) plate reader at 490 nm.

OVCAR3 cells [3] = assay: cellular uptake of labeled siRNA by flow cytometry; format: cell-based; design: uptake efficiency higher than DIV3W uptake: concentration or dose not given beside the values; conditions: for uptake efficiency, tandem vs LHRH peptide: FIG. 10E, 4 hr, cell line not stated
Method: as §1, §2

pGHWSY-(d) LLRPGGGGGWEADIVADIVWDIVADIVAGGG-(d) RRRRRRRRR ([pG]HWSY[dL]LRPGGGGGWEADIVADIVWDIVADIVAGGG[dR][dR][dR][dR][dR][dR][dR][dR][dR]; reading uncertain) [LHRH-DIV3W]
intact siRNA after incubation in 50% serum [1]: fully protect siRNA cargo from degradation
uptake efficiency higher than DIV3W uptake (CAOV3 cells; CAOV3): 11%
uptake efficiency (CAOV3 cells; CAOV3, siNT-Cy5.5, 4 hours): 36.19%+9.67% and 36.19%±16.76%
uptake efficiency (CAOV3 cells; CAOV3, siNT-Cy5.5, 24 hours): 63.47%+4.61% and 63.4%±4.6%
CK2α protein expression (CK2α protein): slight reduction in protein band intensity
cytotoxicity of peptide alone (OVCAR3 cells [2]): did not cause cytotoxic effects
viability (OVCAR3 cells [2]): 109.66%+0.8%
uptake efficiency, tandem vs LHRH peptide (OVCAR3 cells [3]; 40:1): 66.81%±4.3%
uptake efficiency, tandem vs LHRH peptide (OVCAR3 cells [3]; 60:1): 72.59%±6.87%
uptake efficiency, tandem vs LHRH peptide (OVCAR3 cells [3]; 80:1): 76.26%±14.9%
uptake efficiency higher than DIV3W uptake (OVCAR3 cells [3]; OVCAR3): 12%
uptake efficiency (OVCAR3 cells [3]; OVCAR3, siNT-Cy5.5, 4 hours, 80:1): 79.58%+0.61% and 79.58%±1.05%
uptake efficiency (OVCAR3 cells [3]; OVCAR3, siNT-Cy5.5, 24 hours, 80:1): 76.26%±15.56%
